According to PMC7818652 (ACS Catalysis, 2020):

Legend:
Test in all cases: steady-state kinetics, DCIP reduction (spectrophotometric)
Format in all cases: biochemical, Neurospora crassa
Conditions in all cases: 2,6-dichloroindophenol as saturating co-substrate; pH 6.0 citrate-phosphate; 30 °C
CDHABB = system: T1, CDHABB
T1 construct: gene cdhIIB; single fused chain: CYT of NcCDHIIA + linker and DH of NcCDHIIB, no CBM1; expressed in Pichia pastoris KM71H; with Cellobiose dehydrogenase
Excerpt: steady-state kinetics, DCIP reduction (spectrophotometric) on CDHABB

CDHAAB = system: T2, CDHAAB
T2 construct: gene cdhIIB; single fused chain: CYT and linker of NcCDHIIA + DH of NcCDHIIB, no CBM1; expressed in Pichia pastoris KM71H; with Cellobiose dehydrogenase
Excerpt: steady-state kinetics, DCIP reduction (spectrophotometric) on CDHAAB

CDHBAA = system: T3, CDHBAA
T3 construct: gene cdhIIA; single fused chain: CYT of NcCDHIIB + linker, DH and CBM1 of NcCDHIIA; expressed in Pichia pastoris KM71H; with Cellobiose dehydrogenase
Excerpt: steady-state kinetics, DCIP reduction (spectrophotometric) on CDHBAA

CDHBBA = system: T4, CDHBBA
T4 construct: gene cdhIIA; single fused chain: CYT and linker of NcCDHIIB + DH and CBM1 of NcCDHIIA; expressed in Pichia pastoris KM71H; with Cellobiose dehydrogenase
Excerpt: steady-state kinetics, DCIP reduction (spectrophotometric) on CDHBBA

Km (CDHABB): 26 ± 3 µM | Km (CDHAAB): 46 ± 3 µM | Km (CDHBAA): 57 ± 6 µM | Km (CDHBBA): 75 ± 5 µM
Structure (SMILES): OC[C@H]1O[C@@H](O[C@H]2[C@H](O)[C@@H](O)C(O)O[C@@H]2CO)[C@H](O)[C@@H](O)[C@@H]1O (stereo partly shown) [cellobiose]
